Earlier results, collected in patent US5972375A, “Polyvinyl alcohol compositions prepared by crosslinking in a freezing step” (Implico BV, priority 1992, dated 1999).
Like-named read-outs stand apart in the source and are kept apart here.

Columns and labels:
[1] = system: Rat
[2] = system: Primate
[3] = system: Mouse
[4] = system: Rat; remark: listed apart in the source
[5] = system: Dog

Structure (SMILES): OCC(O)CO [Glycerol]
- Oral absorption LD50 ([1]; in vivo, po): 12600 mg/kg

Structure (SMILES): CN(C)C=O [DMS, Dimethylformamide]
- Oral absorption LD50 ([1]; oral): 2800 mg/kg

Structure (SMILES): C[S+](C)[O-] [DMSO, dimethyl sulphoxide]
- Intravenous route LD50 ([2]; intravenous): 4 g/kg of Body weight
- Oral route LD50 ([2]; oral): > 4 g/kg of Body weight
- Percutaneous route LD50 ([2]; percutaneous): > 11 g/kg of Body weight
- Oral absorption LD50 ([1]; oral): 19700 mg/kg
- Percutaneous route LD50 [3]: 50 g/kg of Body weight
- Inhalation, non-lethal at ([4]; 24 hr): 2900 mg/m^3
- Inhalation, non-lethal at ([4]; 40 hr): 2000 mg/m^3
- Intravenous route LD50 ([4]; intravenous): 5.4 g/kg of Body weight
- Percutaneous route LD50 ([4]; percutaneous (undiluted)): 40 g/kg of Body weight
- Intravenous route LD50 ([5]; intravenous): 2.5 g/kg of Body weight
- Oral route LD50 ([5]; oral): > 10 g/kg of Body weight
- Percutaneous route LD50 ([5]; percutaneous): > 11 g/kg of Body weight

Structure (SMILES): CCO [Ethanol]
- Oral absorption LD50 ([1]; in vivo, po): 7100 mg/kg

Structure (SMILES): CN1CCCC1=O [N-Methylpyrrolidone]
- Oral absorption LD50 ([1]; oral): 4200 mg/kg

Structure (SMILES): CC(C)=O [Acetone]
- Oral absorption LD50 ([1]; oral): 9800 mg/kg
